System: oral mucositis in patients receiving chemoradiation for head and neck cancer
Experiment: Phase 2 randomized, double-blind, placebo-controlled trial: onset of oral mucositis (WHO OM Scale) in patients receiving CT/RT
Assay type: in vivo, human
Source text: OM is a painful, debilitating, and costly toxicity of different chemoradiotherapy (CT/RT) regimens used to treat head and neck cancer. This trial is a phase 2, randomized, double-blind, dose-ranging, placebo-controlled three-arm study in patients receiving CT/RT for the treatment of head and neck cancer, to assess the safety and tolerability of γ-D-glutamyl-L-tryptophan (SCV-07) as well as its efficacy in delaying the onset of severe OM as assessed by the WHO Oral Mucositis Scale.
The WHO OM Scale is the standard, validated instrument used in clinical trials to measure OM: Grade 0=none; Grade 1=erythema and soreness, no ulcers; Grade 2=ulcers, able to eat a solid diet; Grade 3=ulcers; requires a liquid diet; Grade 4=ulcers, not able to tolerate a solid or liquid diet, requires IV or tube feeding.
59 eligible patients with recently diagnosed, treatment naïve, pathologically-confirmed, non-metastatic squamous cell carcinoma of the oral cavity, oropharynx, hypopharynx or larynx were enrolled and treated with a concomitant regimen of CT/RT consisting of a continuous course of external beam irradiation (IMRT eligible) with a minimum cumulative dose of 50 Gray (Gy) and cisplatin monotherapy administered using standard weekly or tri-weekly dosing regimens (80-100 mg/m^2 administered on Days 0, 21 and 42) or weekly (30-40 mg/m^2). At least two ‘at risk’ intraoral sites were included in the radiation fields and received a cumulative RT dose of at least 50 Gy. Subjects were equally randomized to receive either placebo or one of two doses of γ-D-glutamyl-L-tryptophan (0.02 or 0.1 mg/kg) on each radiation day for up to 7 weeks.
Tables 2-7 summarize the statistics for the Full Analysis Set “FAS” (57 subjects), and the completer population (52 subjects), with respect to delay of onset of severe oral mucositis. Also see FIGS. 1 and 2.
SCV-07 efficacy, dosing and scheduling parameters were assessed in hamster models of acute, fractionated and concomitant chemoradiation (CRT). […] A multicenter, prospective, blinded, randomized trial evaluated SCV-07's ability to alter OM in CRT-treated HNC patients (n=57). Cytokine and gene microarray analyses were performed for samples obtained before and on the last radiation day.

[1] = 0.02 mg/kg vs placebo, Completer Population
[2] = 0.02 mg/kg, Completer Population
[3] = 0.02 mg/kg, Completer Population, at 30-<35 Gy
[4] = 0.02 mg/kg, Completer Population, at 35-<40 Gy
[5] = 0.02 mg/kg, Completer Population, at 40-<45 Gy
[6] = 0.02 mg/kg, Completer Population, at 45-<50 Gy
[7] = 0.02 mg/kg, Completer Population, at 50-<55 Gy
[8] = 0.02 mg/kg, Completer Population, at 55-<60 Gy
[9] = 0.02 mg/kg, Completer Population, at 65-<70 Gy
[10] = 0.02 mg/kg, Completer Population, at ≧70 Gy
[11] = 0.10 mg/kg vs placebo, Completer Population
[12] = 0.10 mg/kg, Completer Population

`N[C@H](CCC(=O)N[C@@H](Cc1c[nH]c2ccccc12)C(=O)O)C(=O)O` [SCV-07, γ-D-glutamyl-L-tryptophan] was tested, and the “Cox Regression Analysis of Time to Initial Occurrence of Sever OM, Hazard Ratio (95% CI)” value [1] was 1.884 (0.840, 4.225), the “Cox Regression Analysis of Time to Initial Occurrence of Ulcerative OM, Hazard Ratio (95% CI)” value [1] was 0.737 (0.377, 1.444) and the “Cox Regression Analysis of Time to Initial Occurrence of Severe OM, Hazard Ratio (95% CI)” value (0.02 mg/kg vs placebo, FAS population) was 1.989 (0.908, 4.357). For the same molecule, the “Cumulative Dose of RT (Gy) at Initial Onset of Severe OM, Max” value (“Cumulative Dose of RT … of Severe OM, Max” for short) [2] was 70 Gy, the “Cumulative Dose of RT (Gy) at Initial Onset of Severe OM, Mean (SD)” value (from here on “Cumulative Dose … of Severe OM, Mean (SD)”) [2] was 43 (18.7) Gy and the “Cumulative Dose of RT (Gy) at Initial Onset of Severe OM, Median” value (from here on “Cumulative Dose of RT … of Severe OM, Median”) [2] was 34 Gy. The “Cumulative Dose of RT (Gy) at Initial Onset of Severe OM, Min” value (“Cumulative Dose of RT … of Severe OM, Min” for short) [2] was 18 Gy, the “Cumulative Dose of RT (Gy) at Initial Onset of Ulcerative OM, Max” value [2] was 62 Gy and the “Cumulative Dose of RT (Gy) at Initial Onset of Ulcerative OM, Mean (SD)” value [2] was 24 (12.9) Gy. The “Cumulative Dose of RT (Gy) at Initial Onset of Ulcerative OM, Median” value [2] was 22 Gy, the “Cumulative Dose of RT (Gy) at Initial Onset of Ulcerative OM, Min” value [2] was 6 Gy and the “Cumulative Dose of Radiation (Gy) Prior to Initial Occurrence of Severe OM (Delay to Onset of Severe OM), K-M Estimate, Mean (SE)” value [2] was 42 (4.2) Gy. The “Cumulative Dose of Radiation (Gy) Prior to Initial Occurrence of Severe OM, K-M Estimate, 25%-75%” value [2] was 28-62 Gy, the “Cumulative Dose of Radiation (Gy) Prior to Initial Occurrence of Severe OM, K-M Estimate, Median (95% CI)” value [2] was 34 (28, 62) Gy and the “Cumulative Dose of Radiation (Gy) Prior to Initial Occurrence of Ulcerative OM (Delay to Onset of Ulcerative OM), K-M Estimate, Mean (SE)” value [2] was 24 (3.1) Gy. For the same molecule, the “Cumulative Dose of Radiation (Gy) Prior to Initial Occurrence of Ulcerative OM, K-M Estimate, 25%-75%” value [2] was 18-30 Gy, the “Cumulative Dose of Radiation (Gy) Prior to Initial Occurrence of Ulcerative OM, K-M Estimate, Median (95% CI)” value [2] was 22 (18, 30) Gy and the “Time (Days) to Initial Occurrence of Sever OM, K-M Estimate, 25%-7%” value [2] was 18 to 42 days. For the same molecule, the “Time (Days) to Initial Occurrence of Sever OM, K-M Estimate, Mean (SE)” value [2] was 28 (3.0) Days, the “Time (Days) to Initial Occurrence of Sever OM, K-M Estimate, Median (95% CI)” value [2] was 25 (18, 42) Days and the “Time (Days) to Initial Occurrence of Ulcerative OM, K-M Estimate, 25%-7%” value [2] was 10 to 20 days. For the same molecule, the “Time (Days) to Initial Occurrence of Ulcerative OM, K-M Estimate, Mean (SE)” value [2] was 16 (2.2) Days, the “Time (Days) to Initial Occurrence of Ulcerative OM, K-M Estimate, Median (95% CI)” value [2] was 15 (10, 20) Days and the “Cum. Percent of Subjects with Ulcerative OM (WHO > 1)” value (from here on “Cum. Percent of Subjects … (WHO > 1)”) (0.02 mg/kg, Completer Population, at 5-<10 Gy) was 6% (1%, 35%). For the same molecule, the “Cum. Percent of Subjects … (WHO > 1)” value (0.02 mg/kg, Completer Population, at 10-<15 Gy) was 18% (6%, 45%), the “Cum. Percent of Subjects … (WHO > 1)” value (0.02 mg/kg, Completer Population, at 15-<20 Gy) was 41% (22%, 67%) and the “Cum. Percent of Subjects … (WHO > 1)” value (0.02 mg/kg, Completer Population, at 20-<25 Gy) was 59% (37%, 81%). For the same molecule, the “Cum. Percent of Subjects … (WHO > 1)” value (0.02 mg/kg, Completer Population, at 25-<30 Gy) was 76% (55%, 93%), the “Cum. Percent of Subjects with Severe OM (WHO > 2)” value (shortened to “Cum. Percent … (WHO > 2)”) [3] was 53% (32%, 77%) and the “Cum. Percent of Subjects … (WHO > 1)” value [3] was 88% (69%, 98%). The “Cum. Percent … (WHO > 2)” value [4] was 53% (32%, 77%), the “Cum. Percent of Subjects … (WHO > 1)” value [4] was 94% (76%, 100%) and the “Cum. Percent … (WHO > 2)” value [5] was 59% (37%, 81%). For the same molecule, the “Cum. Percent of Subjects … (WHO > 1)” value [5] was 94% (76%, 100%), the “Cum. Percent … (WHO > 2)” value [6] was 59% (37%, 81%) and the “Cum. Percent of Subjects … (WHO > 1)” value [6] was 94% (76%, 100%). For the same molecule, the “Cum. Percent … (WHO > 2)” value [7] was 65% (43%, 86%), the “Cum. Percent of Subjects … (WHO > 1)” value [7] was 94% (76%, 100%) and the “Cum. Percent … (WHO > 2)” value [8] was 71% (49%, 89%). For the same molecule, the “Cum. Percent of Subjects … (WHO > 1)” value [8] was 94% (76%, 100%), the “Cum. Percent of Subjects … (WHO > 1)” value (0.02 mg/kg, Completer Population, at 60-<65 Gy) was 100% (76%, 100%) and the “Cum. Percent … (WHO > 2)” value (0.02 mg/kg, Completer Population, at 60->65 Gy) was 78% (56%, 94%). For the same molecule, the “Cum. Percent … (WHO > 2)” value [9] was 78% (56%, 94%), the “Cum. Percent of Subjects … (WHO > 1)” value [9] was 100% (76%, 100%) and the “Cum. Percent of Subjects … (WHO > 1)” value (0.02 mg/kg, Completer Population, at <5 Gy) was 0% (0%, 0%). The “Cum. Percent … (WHO > 2)” value (0.02 mg/kg, Completer Population, at <30 Gy) was 35% (18%, 62%), the “Cum. Percent … (WHO > 2)” value [10] was 78% (56%, 94%) and the “Cum. Percent of Subjects … (WHO > 1)” value [10] was 100% (76%, 100%). The “Cumulative Dose of RT … of Severe OM, Max” value (0.02 mg/kg, FAS population) was 70 Gy, the “Cumulative Dose … of Severe OM, Mean (SD)” value (0.02 mg/kg, FAS population) was 41 (18.0) Gy and the “Cumulative Dose of RT … of Severe OM, Median” value (0.02 mg/kg, FAS population) was 33 Gy. For the same molecule, the “Cumulative Dose of RT … of Severe OM, Min” value (0.02 mg/kg, FAS population) was 18 Gy, the “Cumulative Dose of Radiation (Gy) Prior to Initial Occurrence of Severe OM (Delay to Onset of Severe OM), K-M Estimate, Mean (SE)” value (0.02 mg/kg, FAS population) was 41 (3.8) Gy and the “Cumulative Dose of Radiation (Gy) Prior to Initial Occurrence of Severe OM, K-M Estimate, 25%-75%” value (0.02 mg/kg, FAS population) was 28-62 Gy. The “Cumulative Dose of Radiation (Gy) Prior to Initial Occurrence of Severe OM, K-M Estimate, Median (95% CI)” value (0.02 mg/kg, FAS population) was 34 (29, 59) Gy, the “Time (Days) to Initial Occurrence of Severe OM, K-M Estimate, 25%-7%” value (0.02 mg/kg, FAS population) was 18 to 42 days and the “Time (Days) to Initial Occurrence of Severe OM, K-M Estimate, Mean (SE)” value (0.02 mg/kg, FAS population) was 28 (2.7) Days. The “Time (Days) to Initial Occurrence of Severe OM, K-M Estimate, Median (95% CI)” value (0.02 mg/kg, FAS population) was 24 (19, 41) Days, the “Cum. Percent … (WHO > 2)” value (0.02 mg/kg, FAS population, at 30-<35 Gy) was 52% (32%, 75%) and the “Cum. Percent … (WHO > 2)” value (0.02 mg/kg, FAS population, at 35-<40 Gy) was 58% (37%, 79%). The “Cum. Percent … (WHO > 2)” value (0.02 mg/kg, FAS population, at 40-<45 Gy) was 63% (42%, 83%), the “Cum. Percent … (WHO > 2)” value (0.02 mg/kg, FAS population, at 45-<50 Gy) was 63% (42%, 83%) and the “Cum. Percent … (WHO > 2)” value (0.02 mg/kg, FAS population, at 50-<55 Gy) was 68% (47%, 87%). The “Cum. Percent … (WHO > 2)” value (0.02 mg/kg, FAS population, at 55-<60 Gy) was 73% (53%, 90%), the “Cum. Percent … (WHO > 2)” value (0.02 mg/kg, FAS population, at 60-<65 Gy) was 80% (59%, 94%) and the “Cum. Percent … (WHO > 2)” value (0.02 mg/kg, FAS population, at 65-<70 Gy) was 80% (59%, 94%). For the same molecule, the “Cum. Percent … (WHO > 2)” value (0.02 mg/kg, FAS population, at >30 Gy) was 36% (19%, 61%), the “Cum. Percent … (WHO > 2)” value (0.02 mg/kg, FAS population, at ≧70 Gy) was 80% (59%, 94%) and the “Cox Regression Analysis of Time to Initial Occurrence of Sever OM, Hazard Ratio (95% CI)” value [11] was 1.002 (0.433, 2.319). The “Cox Regression Analysis of Time to Initial Occurrence of Ulcerative OM, Hazard Ratio (95% CI)” value [11] was 0.475 (0.225, 1.004), the “Cox Regression Analysis of Time to Initial Occurrence of Severe OM, Hazard Ratio (95% CI)” value (0.10 mg/kg vs placebo, FAS population) was 1.100 (0.484, 2.500) and the “Cumulative Dose of RT … of Severe OM, Max” value [12] was 72 Gy. For the same molecule, the “Cumulative Dose … of Severe OM, Mean (SD)” value [12] was 55 (14.8) Gy, the “Cumulative Dose of RT … of Severe OM, Median” value [12] was 57 Gy and the “Cumulative Dose of RT … of Severe OM, Min” value [12] was 20 Gy. For the same molecule, the “Cumulative Dose of RT (Gy) at Initial Onset of Ulcerative OM, Max” value [12] was 68 Gy and the “Cumulative Dose of RT (Gy) at Initial Onset of Ulcerative OM, Mean (SD)” value [12] was 31 (16.6) Gy.

— patent publication US20110245316A1, “PREVENTION OR DELAY OF ONSET OF ORAL MUCOSITIS” (SCICLONE PHARMACEUTICALS, INC., priority 2010, published 2011)
